Test results: ChEMBL document CHEMBL2040712, “Design and synthesis of a second series of triazole-based compounds as potent dual mPGES-1 and 5-lipoxygenase inhibitors” (Eur J Med Chem, 2012)

Columns and labels:
[1] = biological target: T1, Polyunsaturated fatty acid 5-lipoxygenase (Homo sapiens, UniProt P09917); experiment: Inhibition of 5-lipoxygenase in human neutrophil preincubated for 15 mins before substrate arachidonic acid addition measured after 10 mins by HPLC method
T1 sequence (P09917 whole entry): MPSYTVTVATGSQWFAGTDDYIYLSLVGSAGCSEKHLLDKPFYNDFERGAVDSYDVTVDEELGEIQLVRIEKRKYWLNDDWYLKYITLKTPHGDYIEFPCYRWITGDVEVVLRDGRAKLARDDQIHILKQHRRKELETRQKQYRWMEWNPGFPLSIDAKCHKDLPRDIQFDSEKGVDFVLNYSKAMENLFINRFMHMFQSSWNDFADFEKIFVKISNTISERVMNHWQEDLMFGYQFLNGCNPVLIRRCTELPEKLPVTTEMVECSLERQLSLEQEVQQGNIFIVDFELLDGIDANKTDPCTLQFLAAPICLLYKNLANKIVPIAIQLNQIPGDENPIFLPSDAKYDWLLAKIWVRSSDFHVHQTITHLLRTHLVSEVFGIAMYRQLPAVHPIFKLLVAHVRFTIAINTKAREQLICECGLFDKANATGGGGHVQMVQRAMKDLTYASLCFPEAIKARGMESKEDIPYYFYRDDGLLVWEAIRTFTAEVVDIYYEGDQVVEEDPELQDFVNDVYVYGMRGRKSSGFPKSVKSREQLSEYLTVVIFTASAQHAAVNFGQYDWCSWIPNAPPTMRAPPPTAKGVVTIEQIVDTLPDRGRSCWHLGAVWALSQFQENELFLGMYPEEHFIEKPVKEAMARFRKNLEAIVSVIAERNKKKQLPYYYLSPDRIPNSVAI

[2] = biological target: T2, Polyunsaturated fatty acid 5-lipoxygenase (Homo sapiens) (UniProt P09917); experiment: Inhibition of human recombinant 5-lipoxygenase in cell-free system assessed as remaining activity at 10 uM preincubated for 10 mins before substrate arachidonic acid addition measured after 10 mins by RP-HPLC method
T2 sequence (whole entry): T1 sequence (P09917 whole entry)

[3] = biological target: T3, Prostaglandin E synthase (Homo sapiens) (UniProt O14684); experiment: Inhibition of mPGES1 in IL-1beta-stimulated human A549 cell assessed as remaining activity measuring of PGE2 level at 10 uM preincubated for 15 mins before substrate addition by RP-HPLC method
T3 sequence (whole entry): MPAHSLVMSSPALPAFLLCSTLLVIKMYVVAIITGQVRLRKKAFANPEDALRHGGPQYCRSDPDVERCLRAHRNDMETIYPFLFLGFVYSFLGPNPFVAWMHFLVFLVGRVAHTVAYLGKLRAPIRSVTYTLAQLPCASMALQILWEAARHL

[4] = biological target: T1, Polyunsaturated fatty acid 5-lipoxygenase; experiment: Inhibition of human recombinant 5-lipoxygenase in cell-free system preincubated for 10 mins before substrate arachidonic acid addition measured after 10 mins by RP-HPLC method
[5] = biological target: T4, Prostaglandin E synthase (Homo sapiens, UniProt O14684); experiment: Inhibition of mPGES1 in IL-1beta-stimulated human A549 cell assessed as inhibition of PGE2 production preincubated for 15 mins before substrate addition by RP-HPLC method
T4 sequence (O14684 whole entry): T3 sequence (whole entry)

[6] = biological target: T2, Polyunsaturated fatty acid 5-lipoxygenase (Homo sapiens); experiment: Inhibition of 5-lipoxygenase in human neutrophil assessed as remaining activity at 10 uM preincubated for 15 mins before substrate arachidonic acid addition measured after 10 mins by HPLC method
[7] = species: Rattus norvegicus; experiment: Inhibition of mPGES1 in rat microsomal membranes assessed as inhibition of PGE2 production at 10 uM after 40 seconds by enzyme immunoassay; format: microsomes; conditions: Microsome

SMILES | IC50 [1] [µM] | Activity [2] [%] | Activity [3] [%] | IC50 [4] [µM] | IC50 [5] [µM] | Activity [6] [%] | inhibition [7] [%]
O=C(O)c1ccc(Cn2cc(-c3ccc(-c4ccccc4C(=O)O)cc3)nn2)c([N+](=O)[O-])c1 | > 10 | 75.3 | 94.1 | > 10 | > 10 | 65.9 | 
Nc1ccc(-c2ccc(-c3cn(Cc4ccc(C(=O)O)cc4[N+](=O)[O-])nn3)cc2)cc1 | > 10 | 63.5 | 65.5 | > 10 | > 10 | 100 | 
O=C(O)c1ccc(Cn2cc(-c3ccc(-c4ccc(O)cc4)cc3)nn2)c([N+](=O)[O-])c1 | > 10 |  | 74.2 | 6.8 | > 10 | 108 | 
O=C(O)c1cccc(-c2ccc(-c3cn(Cc4ccc(C(=O)O)cc4[N+](=O)[O-])nn3)cc2)c1 | > 10 | 74.7 | 82.1 | > 10 | > 10 | 124 | 
O=C(O)c1ccc(Cn2cc(-c3ccc(-c4ccccc4)cc3)nn2)c([N+](=O)[O-])c1 |  |  |  |  | < 3.2 |  | 
O=C(O)c1ccc(Cn2cc(-c3ccc(-c4ccccc4COc4cc(C(F)(F)F)ccc4Cl)cc3)nn2)cc1 | 2 |  |  | 1.47 | 1 |  | 
O=C(O)c1ccc(Cn2cc(-c3ccc(-c4cccc(O)c4)cc3)nn2)c([N+](=O)[O-])c1 | > 10 | 80.2 | 55.6 | > 10 | > 10 | 114 | 
O=C(O)c1ccc(-c2ccc(-c3cn(Cc4ccc(C(=O)O)cc4[N+](=O)[O-])nn3)cc2)cc1 | > 5 |  | 93 | > 5 | > 10 |  | 
CN(C)c1ccc2cc(S(=O)(=O)Nc3ccc(-c4ccc(-c5cn(Cc6ccc(C(=O)O)cc6[N+](=O)[O-])nn5)cc4)cc3)ccc2c1 | > 10 |  | 72.5 | 6.1 | > 10 | 96.5 | 
O=C(O)c1ccc(Cn2cc(-c3ccc(-c4cccs4)cc3)nn2)c([N+](=O)[O-])c1 | > 10 | 52.2 |  | > 10 | 5.5 | 89.7 | 
CC(C)c1ccc2c(c1)c(SC(C)(C)C)c(CC(C)(C)C(=O)O)n2Cc1ccc(Cl)cc1 |  |  |  |  |  |  | 82
COc1cc(-c2ccc(-c3cn(Cc4ccc(C(=O)O)cc4[N+](=O)[O-])nn3)cc2)cc(OC)c1OC | > 10 | 64.3 | 54.3 | > 10 | > 10 | 90.2 | 
COc1ccc(-c2ccc(-c3cn(Cc4ccc(C(=O)O)cc4[N+](=O)[O-])nn3)cc2)cc1CN1CCOCC1 | > 10 | 84.9 | 87.4 | > 10 | > 10 | 111 | 
O=C(O)c1ccc(S(=O)(=O)n2cc(-c3ccc(-c4ccccc4COc4cc(C(F)(F)F)ccc4Cl)cc3)nn2)cc1 | 1.2 |  | 78.6 | 1.96 | > 10 |  | 
O=C(O)c1ccc(Cn2cc(-c3ccc(-c4cccc(C(=O)N5CCOCC5)c4)cc3)nn2)c([N+](=O)[O-])c1 | > 10 | 62.7 | 88.9 | > 10 | > 10 | 125 | 
O=C(O)c1ccc(Cn2cc(-c3ccc(-c4ccccc4COc4cc(C(F)(F)F)ccc4Cl)cc3)nn2)c([N+](=O)[O-])c1 | 5.3 |  |  | 2 | 1.2 |  | 
Nc1cc(C(=O)O)ccc1Cn1cc(-c2ccc(-c3ccccc3COc3cc(C(F)(F)F)ccc3Cl)cc2)nn1 | 2.1 |  |  | 0.9 | 0.68 |  | 
